Data taken from patent publication US11000533B2, “Connective tissue monitoring, compositions for connective tissue treatment and methods for treating connective tissue” (priority 2011, dated 2021).
Several values for one entry are separate records, joined by “and”; a condition that tells them apart may be missing. Identical values can stand only once.

How the values were obtained:
acute tendon injury = experiment: Time until positive clinical response (disappearance of swelling, heat and pain on palpation) after medication institution; format: in vivo, horse; settings: for Time until Clinical Response: acute tendon injury
Protocol: An acute tendon injury in a horse, is also known as a “Bowed Tendon”. This injury is clinically characterized by visible swelling of the tendon, heat to touch, as well as pain on palpation of the tendon. Clinical improvement of such a tendon injury is manifest by the diminution and ultimate absence of any swelling, heat and pain on palpation. The trials detailed above were carried out using the “polypaste” (multiple medications) approach to tendon injury in horses using “Tendon Guard Intense”. Three medications were used in initial tendon injury treatment: a proinflammatory cytokine inhibitor (Doxycycline 5 gm BD), an antioxidant or catechin (Green Tea extract/EGCG 5 gm BD) and an anti-inflammatory (Ibuprofen 5 gm BD). Throughout the testing process, a cohort of horses, were unable to take all of the individual ingredients planned, due to a number of reasons: The individual medication contraindications outlined, led to a cohort of horses in initial testing who consequently only received a single drug or a combination of two drugs (not three) to treat their acute tendon injury. These horses received either: All horses were carefully examined daily following acute injury and after institution of medication, by either an experienced veterinarian or trainer, for the presence of all of swelling, heat and pain on palpation of the tendon. A positive clinical response to treatment was defined as the absence of all three of swelling, heat and pain on palpation. The time from medication institution until disappearance of all three signs of swelling, heat and pain on palpation was recorded, as this was deemed the ultimate marker of clinical improvement of the tendon injury. Horses were immediately put back into light exercise once these acute signs had disappeared.

tendon injury = experiment: Additional studies with alternative combinations: resolution of pain and swelling; format: in vivo, horse; settings: dose of 450 mg/day
Protocol: Additional studies have been performed with alternative anti-inflammatories and alternative NSAIDs. It is desirable to avoid using ibuprofen. The reason is ibuprofen stores in tissue and causes positive drug tests in racing horses. Copper indomethacin (CuIndomethacin) has been used as the anti-inflammatory and/or NSAID.
One of the advantages of CuIndomethacin is that it can be used in lower dosages. A dose of 200 mg (⅕ gram) has been used. It is hypothesized that a therapeutic effect may be achieved with 50 mg or ¼ of the usual dose or less by way of example.
In some embodiments, it is desirable to avoid using Doxycycline. The reason for this is that there is a worldwide push not to use antibiotics for purposes which are not infection related. For this reason, in som embodiments, curcumin, which is also a proinflammatory cytokine inhibitor, has been used at a dose of 450 mg/day with great success.

O=C(O[C@@H]1Cc2c(O)cc(O)cc2O[C@@H]1c1cc(O)c(O)c(O)c1)c1cc(O)c(O)c(O)c1 [EGCG, epigallocatechin gallate]
Time until Clinical Response (acute tendon injury; individual horses (5), EGCG alone 5 gms BD): 24 days and 21 days (2×) and 28 days and 31 days | Mean time until a positive clinical response to treatment (acute tendon injury; mean of 5 horses, EGCG alone 5 gms BD): (25 days)

CC(C)Cc1ccc(C(C)C(=O)O)cc1 (stereo not shown) [Ibuprofen]
Time until Clinical Response (acute tendon injury; individual horses (8), Ibuprofen alone 5 gm BD): 20 days and 25 days and 19 days (2×) and 18 days and 23 days and 27 days and 24 days | Mean time until a positive clinical response to treatment (acute tendon injury; mean of 8 horses, Ibuprofen alone 5 gm BD): (21.9 days)

COc1cc(/C=C/C(=O)CC(=O)/C=C/c2ccc(O)c(OC)c2)ccc1O [curcumin]
Outcome of use as proinflammatory cytokine inhibitor in place of doxycycline (tendon injury): great success

C[C@H]1c2cccc(O)c2C(=O)C2=C(O)[C@]3(O)C(=O)C(C(N)=O)=C(O)[C@@H](N(C)C)[C@@H]3[C@@H](O)[C@@H]21 [Doxycycline]
Time until Clinical Response (acute tendon injury; individual horses (6), Doxycycline alone 5 gms BD): 27 days (2×) and 21 days (2×) and 24 days and 28 days | Mean time until a positive clinical response to treatment (acute tendon injury; mean of 6 horses, Doxycycline alone 5 gms BD): (24.66 days)
